According to US20230138395A1, “PHARMACEUTICAL COMPOSITIONS OF A THERAPEUTIC POLYENE MACROLIDE AND METHODS OF THEIR USE” (priority 2020, published 2023):
Values after ≈ are worked out from the molar mass of the structure shown.

Assays:
C. parapsilosis [1] = test: MIC testing (CLSI M27-A3); assay type: cell-based
all Candida strains [2] = test: MFC determination, summary; assay type: cell-based
[3] = tested on: all Aspergillus strains tested; test: MFC determination, summary; assay type: cell-based
[4] = tested on: all Aspergillus strains tested; test: MIC testing (CLSI M38-A2), summary; assay type: cell-based; conditions: caspofungin read as MEC
[5] = tested on: individual Aspergillus spp. (Table 13, species not given); test: MFC determination, Table 13; assay type: cell-based; conditions: Aspergillus sp. of Table 13
[6] = tested on: individual Aspergillus spp. (Table 12, species not named); test: MIC testing (CLSI M38-A2), Table 12; assay type: cell-based; conditions: Aspergillus sp. of Table 12, caspofungin read as MEC
all Candida strains [7] = test: MIC testing (CLSI M27-A3), summary; assay type: cell-based
Cr. neoformans strains = test: MFC determination; assay type: cell-based, Cryptococcus neoformans
Fusarium strains [8] = test: MIC testing (CLSI M38-A2), Table 17; assay type: cell-based, Fusarium spp.; conditions: Fusarium strains (Table 17)
A. fumigatus AF91 [9] = test: In vitro activity (MIC) against the infecting strain, Example 17; assay type: cell-based, Aspergillus fumigatus
Method: Minimum Inhibitory Concentration: MIC testing was performed according to the Clinical and Laboratory Standards Institute (CLSI) M27-A3 and M38-A2 standards for the susceptibility testing of yeasts and filamentous fungi, respectively (Cryptococcus isolates were incubated for 72 h). For yeast strains, the incubation temperature and time were 35° C. and 24-48 h, respectively, and the inoculum size was 0.5-2.5×10^3 CFU/ml. For filamentous strains, the inoculum size was 0.4-5×10^4 CFU/ml, and the incubation time was strain and drug specific. RPMI 1640 was the test medium throughout, with the exception of the use of YNB for Cryptococcus. Inhibition endpoints for compound 1A were recorded at 50% and 100% after both 24 h and 48 h incubation; caspofungin results against Aspergillus strains were read as minimum effective concentrations (MEC), the lowest concentration that leads to small, rounded, compact growth as compared to the confluent growth of the control.

[10] = tested on: individual Aspergillus spp. (Table 15, species not named); test: MFC determination, Table 15; assay type: cell-based; conditions: Aspergillus sp. of Table 15
Penicillium strains = test: MFC determination; assay type: cell-based, Penicillium spp.
[11] = tested on: individual Aspergillus spp. (Table 12, species not named); test: MFC determination, Table 12; assay type: cell-based; conditions: Aspergillus sp. of Table 12
C. krusei strains [12] = test: MIC testing (CLSI M27-A3); assay type: cell-based
A. fumigatus AF91 [13] = test: In vitro activity (MFC) against the infecting strain, Example 17; assay type: cell-based, Aspergillus fumigatus
Method: Minimum Fungicidal Concentration: MFC determinations were performed according to the modifications previously described by Canton et al., Diagn. Microbiol. Infect. Dis., 45:203-206, 2003, and Ghannoum and Isham, Infectious Diseases in Clinical Practice, 15(4):250-253, 2007.
Specifically, the total contents of each clear well from the MIC assay were subcultured onto potato dextrose agar. To avoid antifungal carryover, the aliquots were allowed to soak into the agar and then were streaked for isolation once dry, thus removing the cells from the drug source. Fungicidal activity is defined as ≥99.9% reduction in the number of colony forming units (CFU)/ml from the starting inoculum count, while fungistatic activity is defined as <99.9% reduction. […] MIC and MFC values are considered to be equivalent if they are within 2 dilutions.

Candida albicans = test: MIC testing (CLSI M27-A3); assay type: cell-based; conditions: for MIC Range: in µg/mL
C. parapsilosis [14] = test: MFC determination; assay type: cell-based
C. krusei strains [15] = test: MFC determination; assay type: cell-based
C. albicans SC5314 = test: In vitro activity (MIC) against the infecting strain, Example 18; assay type: cell-based, Candida albicans
Fusarium strains [16] = test: MFC determination, Table 17; assay type: cell-based, Fusarium spp.; conditions: Fusarium strains (Table 17)
[17] = C. parapsilosis strains, in µg/mL

`C[C@@H]1[C@H](O)[C@@H](C)/C=C/C=C/C=C/C=C/C=C/C=C/C=C/[C@H](O[C@@H]2O[C@H](C)[C@@H](O)[C@H](N)[C@@H]2O)C[C@@H]2O[C@](O)(C[C@@H](O)C[C@@H](O)[C@H](O)CC[C@@H](O)C[C@@H](O)CC(=O)O[C@H]1C)C[C@H](O)[C@H]2C(=O)O` [Amphotericin B] was tested, and the “MIC Range” value (C. parapsilosis [1]; [17]) was 0.125-1, the MIC50 (C. parapsilosis [1]; C. parapsilosis, inhibits 50% of strains) was 0.25 µg/mL (≈ 0.271 µM) and the MIC90 (C. parapsilosis [1]; C. parapsilosis, inhibits 90% of strains) was 0.5 µg/mL (≈ 0.541 µM). The “MFC Range” value (all Candida strains [2]; in µg/mL) was 0.125-2, the MFC50 (all Candida strains [2]; kills 50% of strains) was 0.5 µg/mL (≈ 0.541 µM) and the MFC90 (all Candida strains [2]; kills 90% of strains) was 1 µg/mL (≈ 1.08 µM). For the same molecule, the MFC50 ([3]; kills 50% of strains) was > 8 µg/mL, the MFC90 ([3]; kills 90% of strains) was > 8 µg/mL and the “MIC Range” value ([4]; in µg/mL) was 0.25-16. For the same molecule, the MIC50 ([4]; inhibits 50% of strains) was 1 µg/mL (≈ 1.08 µM), the MIC90 ([4]; inhibits 90% of strains) was 8 µg/mL (≈ 8.66 µM) and the MFC50 ([5]; kills 50% of strains) was > 8 µg/mL. For the same molecule, the MFC90 ([5]; kills 90% of strains) was > 8 µg/mL, the “MIC Range” value ([6]; in µg/mL) was 1-8 and the MIC50 ([6]; inhibits 50% of strains) was 8 µg/mL (≈ 8.66 µM). For the same molecule, the MIC90 ([6]; inhibits 90% of strains) was 8 µg/mL (≈ 8.66 µM), the “MIC Range” value (all Candida strains [7]; in µg/mL) was 0.125-1 and the MIC50 (all Candida strains [7]; inhibits 50% of strains) was 0.5 µg/mL (≈ 0.541 µM). For the same molecule, the MIC90 (all Candida strains [7]; inhibits 90% of strains) was 0.5 µg/mL (≈ 0.541 µM), the “MFC Range” value (Cr. neoformans strains; Cr. neoformans strains, in µg/mL) was 0.25-2 and the MFC50 (Cr. neoformans strains; Cr. neoformans, kills 50% of strains) was 0.5 µg/mL (≈ 0.541 µM). The MFC90 (Cr. neoformans strains; Cr. neoformans, kills 90% of strains) was 1 µg/mL (≈ 1.08 µM), the “MIC Range” value (Fusarium strains [8]; in µg/mL) was 0.5-2 and the MIC50 (Fusarium strains [8]; inhibits 50% of strains) was 1 µg/mL (≈ 1.08 µM). The MIC90 (Fusarium strains [8]; inhibits 90% of strains) was 2 µg/mL (≈ 2.16 µM), the MIC (A. fumigatus AF91 [9]) was 2 µg/mL (≈ 2.16 µM) and the MFC50 ([10]; kills 50% of strains) was > 32 µg/mL. The MFC90 ([10]; kills 90% of strains) was > 32 µg/mL, the MFC50 (Penicillium strains; kills 50% of strains) was 4 µg/mL (≈ 4.33 µM) and the MFC90 (Penicillium strains; kills 90% of strains) was > 8 µg/mL. For the same molecule, the MFC50 ([11]; kills 50% of strains) was 8 µg/mL (≈ 8.66 µM), the MFC90 ([11]; kills 90% of strains) was > 32 µg/mL and the “MIC Range” value (C. krusei strains [12]; C. krusei strains, in µg/mL) was 0.5-1. It also gave an MIC50 (C. krusei strains [12]; C. krusei, inhibits 50% of strains) of 0.5 µg/mL (≈ 0.541 µM), an MIC90 (C. krusei strains [12]; C. krusei, inhibits 90% of strains) of 1 µg/mL (≈ 1.08 µM) and an MFC (A. fumigatus AF91 [13]) of 16 µg/mL (≈ 17.3 µM). The “MIC Range” value (Candida albicans; Fluconazole-resistant C. albicans n = 7) was 0.25-1, the “MIC Range” value (Candida albicans; Fluconazole-susceptible C. albicans n = 13) was 0.125-0.5 and the MIC50 (Candida albicans; Fluconazole-susceptible C. albicans n = 13, inhibits 50% of strains) was 0.25 µg/mL (≈ 0.271 µM). The MIC90 (Candida albicans; Fluconazole-susceptible C. albicans n = 13, inhibits 90% of strains) was 0.5 µg/mL (≈ 0.541 µM), the “MFC Range” value (C. parapsilosis [14]; [17]) was 0.5-2 and the MFC50 (C. parapsilosis [14]; C. parapsilosis, kills 50% of strains) was 1 µg/mL (≈ 1.08 µM). For the same molecule, the MFC90 (C. parapsilosis [14]; C. parapsilosis, kills 90% of strains) was 1 µg/mL (≈ 1.08 µM), the “MFC Range” value (C. krusei strains [15]; C. krusei strains, in µg/mL) was 1 and the MFC50 (C. krusei strains [15]; C. krusei, kills 50% of strains) was 1 µg/mL (≈ 1.08 µM). The MFC90 (C. krusei strains [15]; C. krusei, kills 90% of strains) was 1 µg/mL (≈ 1.08 µM), the MIC (C. albicans SC5314) was 0.125 µg/mL (≈ 0.135 µM) and the “MFC Range” value (Fusarium strains [16]; in µg/mL) was 1-4. The MFC50 (Fusarium strains [16]; kills 50% of strains) was 2 µg/mL (≈ 2.16 µM) and the MFC90 (Fusarium strains [16]; kills 90% of strains) was 2 µg/mL (≈ 2.16 µM).
